Assay results from patent publication US20250195678A1, “B-LYMPHOCYTE SPECIFIC AMATOXIN ANTIBODY CONJUGATES” (Heidelberg Pharma Research GmbH, priority 2019, published 2025).

Columns and labels:
MEC-2 cell line = assay: 96-hour CTG cytotoxicity assay on MEC-2; assay type: cell-based, human; details: 96-hour CTG assay
Experimental: (§1) FIG. 16. Results of cytotoxicity studies on (A) MEC-1-, (B) MEC-2-, (C) Raji-, (D) Nalm-6-, and (E) Ramos cell lines, respectively, using the obinutuzumab amatoxin conjugates Obi-30.1699 and Obi-30.2115 in a 96-hour CTG assay in comparison to unconjugated α-amanitin.
(§2) Results are depicted in FIG. 14.
(§3) Results are depicted in FIG. 15.
(§4) Cytotoxic activities of the obinutuzumab amatoxin conjugates Obi-30.1699 and Obi-30.2115 were assessed in vitro on MEC-1, MEC-2, Raji, Nalm-6, and Ramos cell lines, respectively, using a 96-hour CTG assay, in comparison to unconjugated α-amanitin. Results are depicted in FIG. 16.

Raji cell line = assay: 96-hour CTG cytotoxicity assay on Raji; assay type: cell-based, human; details: 96-hour CTG assay
Experimental: as §1, §3, §4

MEC-1 cell line = assay: 96-hour CTG cytotoxicity assay on MEC-1; assay type: cell-based, human; details: 96-hour CTG assay
Experimental: as §1, §2, §3, §4

Ramos cell line = assay: 96-hour CTG cytotoxicity assay on Ramos; assay type: cell-based; details: 96-hour CTG assay
Experimental: as §1, §3, §4

[1] = tested on: Nalm-6 cells (CD20-negative); assay: 96-hour CTG cytotoxicity assay on Nalm-6; assay type: cell-based; details: 96-hour CTG assay
Experimental: as §1, §3, §4

RNA-polymerase II = RNA-polymerase II (Homo sapiens, UniProt P24928); details: read-out: KD of complex with RNA-polymerase II; cited from earlier work

## CC[C@H](C)[C@@H]1NC(=O)CNC(=O)[C@@H]2Cc3c([nH]c4cc(O)ccc34)[S+]([O-])C[C@@H](NC(=O)CNC1=O)C(=O)N[C@@H](CC(N)=O)C(=O)N1C[C@H](O)C[C@H]1C(=O)N[C@@H]([C@@H](C)[C@@H](O)CO)C(=O)N2 (stereo in doubt) [α-amanitin, reference compound]
MEC-2 cell line
  Cytotoxic effect on MEC-2 (in words): cytotoxic effects on all cell lines only in the millimolar range
Raji cell line
  Cytotoxic effect on Raji (in words): cytotoxic effects on all cell lines only in the millimolar range
MEC-1 cell line
  Cytotoxic effect on MEC-1 (in words): cytotoxic effects on all cell lines only in the millimolar range
Ramos cell line
  Cytotoxic effect on Ramos (in words): cytotoxic effects on all cell lines only in the millimolar range
[1]
  Cytotoxic effect on Nalm-6 (in words): cytotoxic effects on all cell lines only in the millimolar range
RNA-polymerase II
  Kd: 3 nM
